Measurements published in patent publication US20250057832A1, “USE OF A CLASS OF 1,4-DIHYDRO-NAPHTHYRIDINE DERIVATIVES IN TREATMENT OF TUMORS” (NEURODAWN PHARMACEUTICAL CO., LTD., priority 2021, published 2025).
“Also recorded” adds a separate entry of the source.

Assays:
U251 = assay: Vacuolation phenotype by S2 (Example 2); type: cell-based, human; settings: U251, 30 μM, 6 hours
Procedure: (§1) U87MG, T98G, U251, SK-N-SH, A-172 and HepG2 cells were adherently cultured in MEM+10% FBS+1% P/S medium and passaged at 1:3; CT26.WT cells were adherently cultured in RPMI-1640+10% FBS+1% P/S medium and passaged at 1:3; CHO-K1 was cultured adherently in Ham's F-12K+10% FBS+[…] medium and passaged at 1:3.
(§2) The cells used above were resuscitated and passaged twice stably. When the cell density reached above 85%, the cells were digested with 0.05% trypsin-EDTA for 3 minutes, resuspended with the culture medium, and plated into a 6-well plate at a certain density, with each well system being 2 mL. The cells were cultured for 24 hours, added with 2 μL of the above-prepared S2 solution (final DMSO concentration 0.1%) to each well according to the grouping, such that the S2 concentration in the cell culture system reached 30 μM.
(§3) After 6 hours of drug treatment, the plate was observed under a microscope with a 20× objective lens, and five fields of view were randomly selected for each well to take photos and record. If bright vacuoles with clear border appeared in the cell in the observed field of view, and at least one of the following conditions was met: 1) a cell contained at least one vacuole with a diameter greater than […]; 2) a cell contained 3 or more vacuoles with a diameter within the range of […], the cell was considered as a methuosis-positive cell (Journal of Medicinal Chemistry 2018 61 (12), 5424-5434).
(§4) CELLpositive: the number of methuosis-positive cells; CELLnormal: the number of cells with normal morphology

A172 = assay: Vacuolation phenotype by S2 (Example 2); type: cell-based, human; settings: A172, 30 μM, 6 hours
Procedure: as §1, §2, §3, §4

T98G cells = assay: Vacuolation induction in T98G cells (Example 1); type: cell-based, human
Procedure: T98G cells were stably passaged twice. When the cell density reached more than 85%, the cells were digested with 0.05% trypsin-EDTA for 3 minutes, resuspended with the culture medium, and plated in a 12-well plate at a certain density, with each well system being 1 mL. The cells were cultured for 24 hours, and added with the compound solution prepared above to each well according to the grouping, so that the concentrations of the compounds in the culture system were respectively 5 μM, 10 μM, 20 μM, 40 μM, and 60 μM. An equal volume of DMSO was added as a control well.
After 6 hours of drug treatment, the plates were observed under a microscope with a 20× objective lens, and five fields of view were randomly selected for each well to take photos and record. If in the observed field of view, bright vacuoles with clear border appeared in the cell, and at least one of the following conditions was met: 1) a cell contained at least 1 vacuole with a diameter greater than 3 μm; 2) a cell contained 3 or more vacuoles with a diameter within the range of 0.5-3 μm, the cell was considered to be methuosis-positive cells.
Among them, CELL positive: the number of methuosis-positive cells; CELL normal: the number of cells with normal morphology

CHO-K1 [1] = assay: Vacuolation phenotype by S2 (Example 2); type: cell-based, hamster; settings: non-tumor cell line CHO-K1, 30 μM, 6 hours
Procedure: as §1, §2
After 6 hours of drug treatment, the plate was observed under a microscope with a 20× objective lens, and five fields of view were randomly selected for each well to take photos and record. […]

[2] = system: T98G subcutaneous transplantation tumor; assay: Human brain glioma T98G subcutaneous model in NOD SCID mice (Example 6); type: in vivo, NOD SCID mouse; settings: S2 3 mg/kg IV
Procedure: Human brain glioma T98G cells were cultured in vitro. The cells were cultured in EMEM medium added with 10% fetal calf serum, 100 U/mL penicillin and 100 µg/mL streptomycin, in a 37° C. 5% CO2 incubator. After the number of cells reached the required number, the cells were collected. 0.2 mL (10×10^6) of T98G tumor cells (PBS:Matrigel=1:1) were subcutaneously inoculated into the right back of each mouse. The mice were grouped and administered when the average tumor volume reached approximately 147 mm^3. […]
Tumor diameters were measured with vernier calipers twice a week, and tumors were weighed and photographed after the experiment.
1.5 Data Statistics The tumor volume was calculated as follows: V=0.5a×b^2, where a and b represent the long and short diameters of the tumor respectively.
The tumor inhibitory effect was evaluated by TGI (%) or relative tumor proliferation rate T/C (%).
The tumor inhibitory effect was calculated as TGI (%): TGI %=[1-(average tumor volume at the end of administration in a certain treatment group−average tumor volume at the beginning of administration in the treatment group)/(average tumor volume at the end of administration in the vehicle control group−average tumor volume in the vehicle control group at the beginning of treatment)]×100. […]

CHO-K1 [3] = assay: Cell viability assay (Example 2); type: cell-based, hamster; settings: non-tumor cell line CHO-K1, 48 hours
Procedure: as §1
(§5) The above various cells were resuscitated and stably passaged twice. When the cell density reached above 85%, the cells were digested with 0.05% trypsin-EDTA for three minutes, resuspended, plated in a 96-well plate at the corresponding density, and cultured for 24 hours. The cells were treated with drugs at final concentrations of the culture system of 0.41 μM, 1.23 μM, 3.7 μM, 11.1 μM, 33.3 μM, and 100 μM. After 48 hours of drug treatment, cell viability was determined using CellCounting-Lite™ 2.0 kit. The plate was added with reagents at 100 µL/well according to the CellCounting-Lite™ 2.0 kit instructions, and shaken for 10 minutes. The luminescence value (LUM) was read on a multi-function plate reader, and the relative viability of the cells was calculated.
(§6) Relative viability of tumor cells V (%)=(LUM-LUMbackground)/(LUMnormal control−LUMbackground)×100%. LUMbackground was the background reading of the complete culture medium well added with the detection reagent. The half inhibitory concentration (IC50) was calculated using GraphPad Prism 8.0.1 statistical software.

[4] = system: neural tumor cells and non-neural tumor systems; assay: Cell viability assay, summary over tumor cell lines (Example 2); type: cell-based; settings: neural and non-neural tumor cells of Table 3, 48 hours; read-out: IC50, range over tumor cell lines
Procedure: as §1, §5, §6

## CCOC(=O)C1=C(C)Nc2nc3c(c(N)c2C1c1ccccc1Cl)CC(C)(C)CC3 (stereo not shown) [Compound S2]
U251
  Induction of vacuolation: can induce vacuolation
A172
  Induction of vacuolation: can induce vacuolation
T98G cells
  Rank of vacuolation-inducing activity among the derivatives: strongest vacuolation-inducing activity
T98G cells; FIG. 1 and Table 1
  Induction of vacuolation in T98 cells: can induce vacuolation
CHO-K1 [1]
  Induction of vacuolation: could not induce vacuolation
[2]
  Tumor volume growth vs vehicle (FIG. 13A-C): significantly inhibited tumor volume growth; also recorded: inhibited the growth of T98 glioma
  Tumor weight at end of experiment vs control (FIG. 13D): significantly lower than that in the control group; also recorded: reduced the volume and weight of solid tumors
CHO-K1 [3]; CHO-K1, 48 h
  IC50: > 100 µM
CHO-K1 [3]
  IC50: ~100 µM
[4]
  IC50: 4.7 to 14.3 µM
